Experimental data as given in patent EP0705841A1, “Peptides havng antigenic activity against hepatitis A virus (HAV)” (SORIN BIOMEDICA S.p.A., priority 1994, dated 1996).

System: 8F4H9B monoclonal antibody
Experiment: ELISA assay: reactivity of peptides adhering to the solid phase with the 8F4H9B monoclonal antibody
Type: binding, mice
Settings: peptides in monomer form adhering to solid phase (fig.1, fig.2)
Protocol: The solid phase was obtained on PVC trays (Nunc), that were added with 200 µl of a peptide solution at various concentrations in a carbonate buffer 50 mM, pH 9.6. Trays were incubated overnight at 4°C when added with the monomer peptide solution, and for 2 hours at 37°C when added with the tetramer peptide solution.
Trays were saturated with 300 µl of a solution of gelatin 2%, in Tris-HCl, 0.1M, pH 7.5, for 1 hour at room temperature. Antibodies were diluted in a solution, comprising PBS, EDTA 0.03%, Triton-X100 0.2%, Tween 20 0.2% and BSA fraction V 3.2%; and incubated for 3 hours at 37°C. Trays were washed four times with an ET-System Sorin automatic washer, using PBS/Tween 20 0.1%, and the reaction detected by adding 100 µl of a chromogen and a substrate (Sorin DEIA KIT). The reaction was blocked after 30 min. by adding 200 µl of H₂SO₄ 1N, and the absorbance read at 450 nm.

DFMWMH [peptide 17 (Table 1)]
reactivity with the 8F4H9B-HRP monoclonal antibody: reacted with the antibody, even if having shown a lesser reactivity than the PM peptide

DVMYLH [peptide 36 (Table 1)]
reactivity with the 8F4H9B-HRP monoclonal antibody: reacted with the antibody, even if having shown a lesser reactivity than the PM peptide
